Experiments:
Type in all cases: in vivo
[1] = tested on: barnyardgrass (Echinochloa crus-galli); assay: Test G Pre-Emergence Protocol; conditions: Echinochloa crus-galli, pre-emergence, 312 h, evaluated after 13 days
Summary of the method: (§1)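 One day after sowing, pots are treated with a spray of test compound formulated in acetone/water 50:50 plus 0.5% Tween 20, giving 15.625, 62.5 or 250 g/ha. Evaluation on a 0–100 damage scale follows 13 days of glasshouse growth.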

[2] = tested on: ivy-leaved morning glory (Ipomoea hederacea); assay: Test G Pre-Emergence Protocol; conditions: Ipomoea, pre-emergence, 312 h, evaluated after 13 days
Summary of the method: as §1

[3] = tested on: redroot pigweed (Amaranthus retroflexus); assay: Test G Pre-Emergence Protocol; conditions: Amaranthus retroflexus, pre-emergence, 312 h, evaluated after 13 days
Summary of the method: as §1

corn (Zea mays) [4] = assay: Test G Pre-Emergence Protocol; conditions: Zea mays, pre-emergence, 312 h, evaluated after 13 days
Summary of the method: as §1

[5] = tested on: velvetleaf (Abutilon theophrasti); assay: Test G Pre-Emergence Protocol; conditions: Abutilon theophrasti, pre-emergence, 312 h, evaluated after 13 days
Summary of the method: as §1

[6] = tested on: giant foxtail (Setaria faberi); assay: Test G Pre-Emergence Protocol; conditions: Setaria faberi, pre-emergence, 312 h, evaluated after 13 days
Summary of the method: as §1

[7] = tested on: barnyardgrass (Echinochloa crus-galli); assay: Test G Post-Emergence Protocol; conditions: Echinochloa crus-galli, post-emergence, 312 h, read-out: Barnyardgrass damage rating
Summary of the method: (§2)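 Eight days post-sowing, plants received a spray of test compound (acetone/water 50:50, 0.5% Tween 20) at 15.625, 62.5 or 250 g/ha. Glasshouse regime thereafter: 24/16 °C, 14 h light, 65% humidity. Assessment after 13 days on a 0–100 damage scale.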

[8] = tested on: ivy-leaved morning glory (Ipomoea hederacea); assay: Test G Post-Emergence Protocol; conditions: Ipomoea, post-emergence, 312 h, read-out: Morningglory, Ivy-leaved damage rating
Summary of the method: as §2

[9] = tested on: redroot pigweed (Amaranthus retroflexus); assay: Test G Post-Emergence Protocol; conditions: Amaranthus retroflexus, post-emergence, 312 h, read-out: Pigweed, Redroot damage rating
Summary of the method: as §2

corn (Zea mays) [10] = assay: Test G Post-Emergence Protocol; conditions: Zea mays, post-emergence, 312 h, read-out: Corn damage rating
Summary of the method: as §2

[11] = tested on: velvetleaf (Abutilon theophrasti); assay: Test G Post-Emergence Protocol; conditions: Abutilon theophrasti, post-emergence, 312 h, read-out: Velvetleaf damage rating
Summary of the method: as §2

[12] = tested on: giant foxtail (Setaria faberi); assay: Test G Post-Emergence Protocol; conditions: Setaria faberi, post-emergence, 312 h, read-out: Foxtail, Giant damage rating
Summary of the method: as §2

[13] = 15.625 g ai/ha, evaluated after 13 days (100=total damage to plant; 0=no damage to plant)
[14] = 62.5 g ai/ha, evaluated after 13 days, 100=total damage to plant, 0=no damage to plant
[15] = 250 g ai/ha, evaluated after 13 days, 100=total damage to plant, 0=no damage to plant

CN1CC(c2cc(C#N)cc(OC(F)(F)F)c2)C(C(=O)Nc2cccc(F)c2F)C1=O (stereo not drawn) [Compound 1694]
0%: pest or weed control at 15.625 g/ha ([1]; 15.625 g ai/ha, read-out: Barnyardgrass damage rating (100=total damage to plant; 0=no damage to plant)) | pest or weed control at 62.5 g/ha ([1]; 62.5 g ai/ha, 100=total damage to plant, 0=no damage to plant, read-out: Barnyardgrass damage rating) | pest or weed control at 250 g/ha ([1]; 250 g ai/ha, read-out: Barnyardgrass damage rating (100=total damage to plant; 0=no damage to plant)) | pest or weed control at 15.625 g/ha ([2]; 15.625 g ai/ha, read-out: Morningglory, Ivy-leaved damage rating (100=total damage to plant; 0=no damage to plant)) | pest or weed control at 62.5 g/ha ([2]; 62.5 g ai/ha, 100=total damage to plant, 0=no damage to plant, read-out: Morningglory, Ivy-leaved damage rating) | pest or weed control at 250 g/ha ([2]; 250 g ai/ha, read-out: Morningglory, Ivy-leaved damage rating (100=total damage to plant; 0=no damage to plant)) | pest or weed control at 15.625 g/ha ([3]; 15.625 g ai/ha, read-out: Pigweed, Redroot damage rating (100=total damage to plant; 0=no damage to plant)) | pest or weed control at 62.5 g/ha ([3]; 62.5 g ai/ha, 100=total damage to plant, 0=no damage to plant, read-out: Pigweed, Redroot damage rating) | pest or weed control at 250 g/ha ([3]; 250 g ai/ha, read-out: Pigweed, Redroot damage rating (100=total damage to plant; 0=no damage to plant)) | plant injury at 15.625 g/ha (corn (Zea mays) [4]; 15.625 g ai/ha, read-out: Corn damage rating (100=total damage to plant; 0=no damage to plant)) | plant injury at 62.5 g/ha (corn (Zea mays) [4]; 62.5 g ai/ha, 100=total damage to plant, 0=no damage to plant, read-out: Corn damage rating) | plant injury at 250 g/ha (corn (Zea mays) [4]; 250 g ai/ha, read-out: Corn damage rating (100=total damage to plant; 0=no damage to plant)) | pest or weed control at 15.625 g/ha ([5]; 15.625 g ai/ha, read-out: Velvetleaf damage rating (100=total damage to plant; 0=no damage to plant)) | pest or weed control at 62.5 g/ha ([5]; 62.5 g ai/ha, 100=total damage to plant, 0=no damage to plant, read-out: Velvetleaf damage rating) | pest or weed control at 250 g/ha ([5]; 250 g ai/ha, read-out: Velvetleaf damage rating (100=total damage to plant; 0=no damage to plant)) | pest or weed control at 15.625 g/ha ([6]; 15.625 g ai/ha, read-out: Foxtail, Giant damage rating (100=total damage to plant; 0=no damage to plant)) | pest or weed control at 62.5 g/ha ([6]; 62.5 g ai/ha, 100=total damage to plant, 0=no damage to plant, read-out: Foxtail, Giant damage rating) | pest or weed control at 250 g/ha ([6]; 250 g ai/ha, read-out: Foxtail, Giant damage rating (100=total damage to plant; 0=no damage to plant)) | pest or weed control at 15.625 g/ha [7, 13] | pest or weed control at 62.5 g/ha [7, 14] | pest or weed control at 250 g/ha [7, 15] | pest or weed control at 15.625 g/ha [8, 13] | pest or weed control at 62.5 g/ha [8, 14] | pest or weed control at 250 g/ha [8, 15] | pest or weed control at 15.625 g/ha [9, 13] | pest or weed control at 62.5 g/ha [9, 14] | pest or weed control at 250 g/ha [9, 15] | plant injury at 15.625 g/ha (corn (Zea mays) [10]; [13]) | plant injury at 62.5 g/ha (corn (Zea mays) [10]; [14]) | plant injury at 250 g/ha (corn (Zea mays) [10]; [15]) | pest or weed control at 15.625 g/ha [11, 13] | pest or weed control at 62.5 g/ha [11, 14] | pest or weed control at 250 g/ha [11, 15] | pest or weed control at 15.625 g/ha [12, 13] | pest or weed control at 62.5 g/ha [12, 14] | pest or weed control at 250 g/ha [12, 15]

From US12077503B2, “Substituted cyclic amides and their use as herbicides” (FMC CORPORATION, priority 2015, dated 2024)
